# Patent US9434745B2, “7-oxo-thiazolopyridine carbonic acid derivatives and their use in the treatment, amelioration or prevention of a viral disease” (Savira Pharmaceuticals GmbH, priority 2012, dated 2016)
# Target: T1, influenza A virus (IAV) PA-Nter fragment (amino acids 1-209) (Influenza A virus, UniProt P31343)
# T1 construct: PA-Nter fragment (amino acids 1-209); made in house
# Assay: FRET endonuclease activity assay
# Assay type: biochemical
# Conditions: @ 1 μM; read-out: FRET % reduction of v0
row,Compound,inhibition at 1 µM [%]
1,CCOC(=O)c1cn(Cc2ccccc2-c2ccccc2)c2sc(NS(=O)(=O)c3ccc(Cl)cc3)nc2c1=O,6.2
2,CCOC(=O)c1ccc(S(=O)(=O)Nc2nc3c(=O)c(C(=O)OCC)cn(Cc4ccccc4-c4ccccc4)c3s2)cc1,8.1
3,CCOC(=O)c1cn(C(c2ccccc2)c2ccccc2)c2sc(NS(=O)(=O)c3ccc(Cl)cc3F)nc2c1=O,5.6
4,O=C(O)c1cn(C(c2ccccc2)c2ccccc2)c2sc(NS(=O)(=O)c3ccc(Cl)cc3F)nc2c1=O,2
5,COc1ccc(S(=O)(=O)Nc2nc3c(=O)c(C(=O)O)cn(C(c4ccccc4)c4ccccc4)c3s2)cc1,7.8
6,CCOC(=O)c1cn(C(c2ccccc2)c2ccccc2)c2sc(NS(=O)(=O)c3ccc(OC)cc3)nc2c1=O,25

# Same assay, conditions: @ 5 μM; read-out: FRET % reduction of v0
row,Compound,inhibition at 5 µM [%]
1,O=C(O)c1c[nH]c2ncnn2c1=O,26

# Same assay, conditions: @ 10 μM; read-out: FRET % reduction of v0
row,Compound,inhibition at 10 µM [%]
1,COc1ccc(CNc2nc3c(=O)c(C(=O)O)cn(C(c4ccccc4)c4ccccc4)c3s2)cc1,21.5
2,O=C(O)c1cn(Cc2ccccc2-c2ccccc2)c2scnc2c1=O,64
3,Nc1cc2n(Cc3ccccc3-c3ccccc3)cc(C(=O)O)c(=O)n2n1,38

# Same assay, conditions: @ 25 μM; read-out: FRET % reduction of v0
row,Compound,inhibition at 25 µM [%]
1,O=C(O)c1c[nH]c2cc(C3CCCC3)nn2c1=O,41
2,CS(=O)(=O)n1cc(C(=O)O)c(=O)n2nc(N)cc12,31
3,Nc1cc2n(S(=O)(=O)Cc3ccccc3)cc(C(=O)O)c(=O)n2n1,50

# Same assay, conditions: @ 50 μM; read-out: FRET % reduction of v0
row,Compound,inhibition at 50 µM [%]
1,O=C(O)c1cn(Cc2ccccc2-c2ccccc2)c2ccnn2c1=O,29
2,Nc1cc2n(Cc3ccccc3)cc(C(=O)O)c(=O)n2n1,35

# Same assay, conditions: from initial reaction velocities (v0) of RNA substrate cleavage
row,Compound,IC50 [µM]
1,O=C(O)c1cn(Cc2ccccc2-c2ccccc2)c2sc(NS(=O)(=O)c3ccccc3)nc2c1=O,6.5
2,O=C(O)c1cn(Cc2ccccc2-c2ccccc2)c2sc(NCc3ccccc3)nc2c1=O,3.2
3,CNc1nc2c(=O)c(C(=O)O)cn(Cc3ccccc3-c3ccccc3)c2s1,2.8
4,O=C(O)c1cn(Cc2ccccc2-c2ccccc2)c2sc(NC3CC3)nc2c1=O,2.5
5,CC(C)Nc1nc2c(=O)c(C(=O)O)cn(Cc3ccccc3-c3ccccc3)c2s1,14
6,COCCNc1nc2c(=O)c(C(=O)O)cn(Cc3ccccc3-c3ccccc3)c2s1,9
7,O=C(O)c1cn(Cc2ccccc2-c2ccccc2)c2sc(N3CCOCC3)nc2c1=O,0.78
8,O=C(O)c1cn(Cc2ccccc2-c2ccccc2)c2sc(NS(=O)(=O)Cc3ccccc3)nc2c1=O,7.3
9,O=C(O)c1cn(Cc2ccccc2-c2ccccc2)c2sc(NS(=O)(=O)c3cccc(F)c3)nc2c1=O,6.7
10,CS(=O)(=O)Nc1nc2c(=O)c(C(=O)O)cn(Cc3ccccc3-c3ccccc3)c2s1,8.1
11,O=C(O)c1cn(Cc2ccccc2-c2ccccc2)c2sc(NCc3ccc(Cl)cc3)nc2c1=O,2.3
12,COc1ccc(CNc2nc3c(=O)c(C(=O)O)cn(Cc4ccccc4-c4ccccc4)c3s2)cc1,2.9
13,O=C(O)c1cn(Cc2ccccc2-c2ccccc2)c2sc(NCc3cccc(Cl)c3)nc2c1=O,5.2
14,CC(Nc1nc2c(=O)c(C(=O)O)cn(Cc3ccccc3-c3ccccc3)c2s1)c1ccccc1 (centres unmarked),5.8
15,O=C(O)c1cn(Cc2ccccc2-c2ccccc2)c2sc(O)nc2c1=O,0.16
16,COc1ccc(S(=O)(=O)Nc2nc3c(=O)c(C(=O)O)cn(Cc4ccccc4-c4ccccc4)c3s2)cc1,2.7
17,O=C(O)c1cn(Cc2ccccc2-c2ccccc2)c2sc(NS(=O)(=O)c3ccc(Cl)cc3F)nc2c1=O,5.7
18,CCOC(=O)c1cn(Cc2ccccc2-c2ccccc2)c2sc(NCc3c(Cl)cccc3Cl)nc2c1=O,6.3
19,O=C(O)c1cn(C(c2ccccc2)c2ccccc2)c2sc(O)nc2c1=O,0.78
20,O=CNc1nc2c(=O)c(C(=O)O)cn(Cc3ccccc3-c3ccccc3)c2s1,4.7
21,COc1ccc(CNc2nc3c(=O)c(C(=O)O)cn(Cc4ccccc4-c4cc(C)ccc4C)c3s2)cc1,2.1
22,Nc1nc2c(=O)c(C(=O)O)cn(Cc3ccccc3-c3ccccc3)c2s1,0.94
23,Cc1ccc(C)c(-c2ccccc2Cn2cc(C(=O)O)c(=O)c3nc(O)sc32)c1,0.25
